Entries after “also recorded” stand apart in the source; their conditions may differ.
Tests used:
D425-MED-Luc = assay: Orthotopic xenograft of D425-MED-Luc cells in nude mice; type: in vivo; settings: 6 mg/kg/day intraperitoneally; for toxicity by total body weight, treated vs control mice / intracranial tumor growth (bioluminescence, photon emission) / PRUNE1 levels in cerebellar tumours (immunoblotting): HCl salt; for intracranial tumor growth (bioluminescence, photon emission): T21, after 14 days of treatment; for PRUNE1 levels in cerebellar tumours (immunoblotting): n.3 treated vs n.3 vehicle mice
Description: Starting after seven days from tumour implantation (i.e., once the tumours were established) the mice (grouped according to their bioluminescence values) were injected intraperitoneally with LEO-AA7.5(S)T at 6 mg/kg/day, or with water as the vehicle for the control group. After n.28 days from tumour implantation (i.e., after three weeks of AA7.5 treatment), the mice were sacrificed, and the organs were collected.
D425-MED-luc [Ferrucci et al., 2018] were implanted into the right cerebellar hemisphere of female (n.14) athymic nude mice (5 weeks old), as previously described [Asadzadeh et al., 2018], to establish orthotopic intracerebellar D425-MED-Luc xenograft models. Nude mice were anaesthetised with Ketamine/ Xylazine (87.5 mg/kg, 12.5 mg/kg, respectively). The mice were then placed in a stereotactic frame by hooking their incisors onto the frame hold. A small skin incision (length, 1 mm) and a burr hole (diameter, 0.7 mm) were created using a microsurgical drill (Fine Science Tools, Foster City, CA, USA). D425-MED-Luc cells (1 ×10^5)were resuspended in 10 µL PBS and injected slowly through the burr hole into the right cerebellar hemisphere (stereotactic coordinates from Bregma: anteroposterior, 5.5 mm; right lateral, 2.1 mm; dorsoventral 5.0 mm), with a steady force over 30 s, using a 10-AL, 26-gauge Hamilton Gastight model 1701RN syringe needle (SigmaAldrich) that was inserted perpendicular to the cranial surface. The incision was sutured using Safil polyglycolic acid synthetic absorbable suture (6/0). The mice were kept on a warming blanket after the surgery, to help them to maintain their body temperature. Their mobility and respiratory patterns were observed continuously, and once the mice had recovered from the anaesthesia; they were place in a sterile housing cage. The mice were monitored daily for development of potential neurological deficits. Seven days after the implantation of the cells, the mice were imaged, and tumour growth was evaluated by bioluminescence acquisition using an imaging system (IVIS 3D Illumina; Xenogen/ Caliper). For the acquisitions, the mice were anaesthetised by inhalational of isoflurane, and the D-luciferin (122799; PerkinElmer) (15 mg/mL stock) was injected intraperitoneally (100 µL per 10 g body weight). At 5 min from the luciferin injection, the mice were imaged for 3 min. To quantify the bioluminescence, the integrated fluxes of photons (p/s) within each area of interest were determined using the Living Images Software Package 3.2 (Xenogen-Perkin Elmer). For LEO-AA7.5(S)T in-vivo treatment, starting after seven days from tumour implantation (i.e., once the tumours were established) the mice (grouped according to their bioluminescence values) were injected intraperitoneally with LEO-AA7.5(S)T at 6 mg/kg/day, or with water as the vehicle for the control group. After 28 days from tumour implantation (i.e., after three weeks of AA7.5 treatment), the mice were sacrificed, and the organs were collected.

MATH1-Prune1/ TP53-/- = assay: Orthotopic implantation of MATH1-Prune1/TP53-/- cells in immunocompetent syngeneic mice, tumor growth; type: in vivo, FVB WT mice; settings: for intracranial tumor growth (bioluminescence, photon emission) / BLI signal from the spinal cord (metastasis): 6 mg/kg/day intraperitoneally for 7 days, T17, HCl salt; for BLI signal from the spinal cord (metastasis): ex vivo
Description: MATH1-Prune1/ TP53-/- were implanted into the right cerebellar hemisphere of female (n.10) immunocompetent syngeneic mice model (5 weeks old, strain: FVB WT) to establish intracerebellar MATH1-Prune1/ TP53-/- models. Mice were anaesthetised with Ketamine/ Xylazine (87.5 mg/kg, 12.5 mg/kg, respectively). The mice were then placed in a stereotactic frame by hooking their incisors onto the frame hold. A small skin incision (length, 1 mm) and a burr hole (diameter, 0.7 mm) were created using a microsurgical drill (Fine Science Tools, Foster City, CA, USA of MATH1-Prune1/ TP53-/- (1.5 ×10^5) were resuspended in 10 µL PBS and injected slowly through the burr hole into the right cerebellar hemisphere (stereotactic coordinates from Bregma: anteroposterior, 5.5 mm; right lateral, 2.1 mm; dorsoventral 5.0 mm), with a steady force over 30 s, using a 10-AL, 26-gauge Hamilton Gastight model 1701RN syringe needle (SigmaAldrich) that was inserted perpendicular to the cranial surface. The incision was sutured using Safil polyglycolic acid synthetic absorbable suture (6/0). The mice were kept on a warming blanket after the surgery, to help them to maintain their body temperature. Their mobility and respiratory patterns were observed continuously, and once the mice had recovered from the anaesthesia; they were place in a sterile housing cage. The mice were monitored daily for development of potential neurological deficits. 10 days after the implantation of the cells, the mice were imaged, and tumour growth was evaluated by bioluminescence acquisition using an imaging system (IVIS 3D Illumina; Xenogen/ Caliper). For the acquisitions, the mice were anaesthetised by inhalational of isoflurane, and the D-luciferin (122799; PerkinElmer) (15 mg/mL stock) was injected intraperitoneally (100 µL per 10 g body weight). At 5 min from the luciferin injection, the mice were imaged for 3 min. To quantify the bioluminescence, the integrated fluxes of photons (p/s) within each area of interest were determined using the Living Images Software Package 3.2 (Xenogen-Perkin Elmer). […] After 17 days from tumour implantation (i.e., after one weeks of LEO-AA7.5(S)T treatment), the mice were sacrificed, and the organs were collected for immunohistochemistry and immunofluorescence analyses.
Paraffin sections of the tumor specimens (thickness, 3 µm) were deparaffinised and rehydrated by immersing the slides in Xylene Substitute (A5597; Sigma), as three washes for 5 min each, then serially in 100%, 95%, 70%, 50%, and 30% ethanol (two washes for 10 min, for each), and deionised water (two washes, for 5 min each). The washes were then followed by PBS, PBS containing 0.02% Triton-X 100 (215680010; Acros Organics), and PBS (two washes for 5 min, for each). For antigen retrieval, the slides were immersed in boiling 10 mM sodium citrate buffer (pH 6.0) using a microwave oven, and then maintained at sub-boiling temperature for 10 min. The slides were left to cool at room temperature for 30 min. The sections were then washed by immersion in distilled water for 5 min. To block endogenous peroxidase activity, the tissue sections were placed in a solution with 3.0% hydrogen peroxide in methanol for 15 min. Then, to decrease the nonspecific background fluorescence, the tissues were digested by treating them with a solution containing 0.2% trypsin (T2600000; Sigma-Aldrich) and 0.001% CaCl2 for 10 min at 37 °C, in a humidified chamber. The slides were then washed in PBS, PBS containing 0.02% Triton-X 100 (215680010; Acros Organics), and PBS (two washes for 5 min, for each). The tissue sections were blocked with 6% bovine serum albumin (A9418; Sigma), 5% fetal bovine serum (ECS0180L; Euroclone), and 20 mM MgCl2 in PBS containing 0.02% Triton-X 100, for 1 h at room temperature, and incubated overnight with the primary antibodies at 4 °C in a humidified chamber. […]

[1] = listed as (S)-(1-(4-((4-methoxybenzyl)amino)-1,3,5-triazin-2-yl)piperidin-3-yl)methanol HC

COc1ccc(CNc2ncnc(N3CCC[C@H](CO)C3)n2)cc1.Cl [LEO-AA7.5(S)T, (S)-(1-(4-((4-methoxybenzyl)amino)-1,3,5-triazin-2-yl)piperidin-3-yl)methanol HCl salt]
EMT in cerebellar tumours (N-cadherin loss, increased E-cadherin) (D425-MED-Luc): inhibition of EMT | activated PTEN in cerebellar tumours (immunoblotting) (D425-MED-Luc): overexpression | nuclear phosphorylated SMAD2/3 and OTX2 in cerebellar tumours (immunoblotting) (D425-MED-Luc): inhibition | toxicity by total body weight, treated vs control mice (D425-MED-Luc): No significant differences | intracranial tumor growth (bioluminescence, photon emission) (D425-MED-Luc): impairment of tumour growth | intracranial tumor growth (bioluminescence, photon emission) (D425-MED-Luc; [1]): significantly decreased | treated mice showing metastases in the spinal cord (D425-MED-Luc; control mice 7 out of 7): two out of seven | toxicity by total body weight, treated vs control mice (D425-MED-Luc; [1]): no decrease in total body weight | PRUNE1 levels in cerebellar tumours (immunoblotting) (D425-MED-Luc): downregulation of Prune1 | PRUNE1 levels in cerebellar tumours (immunoblotting) (D425-MED-Luc; [1]): reduced PRUNE1 levels | intracranial tumor growth (bioluminescence, photon emission) (MATH1-Prune1/ TP53-/-): impairment of tumour growth | intracranial tumor growth (bioluminescence, photon emission) (MATH1-Prune1/ TP53-/-; [1]): significantly decreased; also recorded: anti-tumorigenic action | BLI signal from the spinal cord (metastasis) (MATH1-Prune1/ TP53-/-): decrease of metastasis | BLI signal from the spinal cord (metastasis) (MATH1-Prune1/ TP53-/-; [1]): decreased intensity of BLI signal | immunosuppressive T cells (CD4+PD1+FOXP3+ and CD8+PD1+FOXP3+) in the tumor microenvironment (MATH1-Prune1/ TP53-/-; 6 mg/kg/day, immunofluorescence of cerebellar tumor sections): reduced

Reference: patent publication EP4361137A1, “PRUNE1 INHIBITORS AND THERAPEUTIC USE THEREOF” (CEINGE Biotecnologie Avanzate Franco Salvatore s.c. a r.l., priority 2022, dated 2024)
